From US20050159431A1, “Substituted alkyl uracils and thereof” (Bayer Healthcare AG, priority 2002, published 2005)

Target: T1, human PARS enzyme (Homo sapiens, UniProt P09874)
T1 construct: made in house; host or cells: baculovirus expression system (Bac-To-Bac, Life Technologies)
Assay: PARS inhibition test (in vitro)
Type: biochemical
Conditions: recombinant human PARS, [14C]-NAD+, 10 min room temperature
Procedure: The activity of substances as PARS inhibitors is tested in accordance with the method of Ushiro [Ushiro et al., J. Biol. Chem., 262, 2352-2357 (1987)]. To this end, recombinantly expressed (Bac-To-Bac, Baculo virus expression system; Instruction Manual; Life Technologies) human PARS enzyme is activated in a buffer which contains radioactively labeled [^14C]-NAD^+. The poly(ADP-ribose) units that are synthesized are precipitated using trichloroacetic acid, and the proportion of labeled protein is determined by scintillation measurements. Incubation of PARS with inhibitors leads to a decrease in the proportion of labeled protein and thus to a reduced radioactivity.
Inhibition of the PARS activity can be represented as a percentage of PARS inhibition in incubation with different substances or as the concentration at which 50% of the enzyme is inhibited, i.e. as IC50 value.
The compounds to be tested are dissolved in DMSO (dimethyl sulfoxide) at a concentration of 10 mM. The assay is carried out in deep 96-well plates. Per well, 70 μl of buffer, 10 μl of DNA, 10 μl of histones, 10 μl of NAD^+/[^14C]-NAD^+ mix and 0.5-5 μl of PARS (about 10,000 cpm/test) are combined with 1 μl of the compounds (final concentration 0.001-10 μM), to give a total volume of about 110 μl. The mixture is incubated at room temperature for 10 min, and 1 ml of ice-cold TCA solution is then added, and the precipitated labeled proteins are sucked onto a filter paper (printed filter mat A; from Wallac) using a harvester (from Scatron). The filter is dried, sealed together with a scintillation sheet (Multilex A; from Wallac) and measured in a p counter for 1 min per well.
In addition to the substances described in this application, the known PARS inhibitor 1,5-dihydroxyisoquinoline (DHCH) is tested as reference substance. The results of the test are stated as IC50 values for the inhibition of PARS.

T1 sequence (P09874 whole entry): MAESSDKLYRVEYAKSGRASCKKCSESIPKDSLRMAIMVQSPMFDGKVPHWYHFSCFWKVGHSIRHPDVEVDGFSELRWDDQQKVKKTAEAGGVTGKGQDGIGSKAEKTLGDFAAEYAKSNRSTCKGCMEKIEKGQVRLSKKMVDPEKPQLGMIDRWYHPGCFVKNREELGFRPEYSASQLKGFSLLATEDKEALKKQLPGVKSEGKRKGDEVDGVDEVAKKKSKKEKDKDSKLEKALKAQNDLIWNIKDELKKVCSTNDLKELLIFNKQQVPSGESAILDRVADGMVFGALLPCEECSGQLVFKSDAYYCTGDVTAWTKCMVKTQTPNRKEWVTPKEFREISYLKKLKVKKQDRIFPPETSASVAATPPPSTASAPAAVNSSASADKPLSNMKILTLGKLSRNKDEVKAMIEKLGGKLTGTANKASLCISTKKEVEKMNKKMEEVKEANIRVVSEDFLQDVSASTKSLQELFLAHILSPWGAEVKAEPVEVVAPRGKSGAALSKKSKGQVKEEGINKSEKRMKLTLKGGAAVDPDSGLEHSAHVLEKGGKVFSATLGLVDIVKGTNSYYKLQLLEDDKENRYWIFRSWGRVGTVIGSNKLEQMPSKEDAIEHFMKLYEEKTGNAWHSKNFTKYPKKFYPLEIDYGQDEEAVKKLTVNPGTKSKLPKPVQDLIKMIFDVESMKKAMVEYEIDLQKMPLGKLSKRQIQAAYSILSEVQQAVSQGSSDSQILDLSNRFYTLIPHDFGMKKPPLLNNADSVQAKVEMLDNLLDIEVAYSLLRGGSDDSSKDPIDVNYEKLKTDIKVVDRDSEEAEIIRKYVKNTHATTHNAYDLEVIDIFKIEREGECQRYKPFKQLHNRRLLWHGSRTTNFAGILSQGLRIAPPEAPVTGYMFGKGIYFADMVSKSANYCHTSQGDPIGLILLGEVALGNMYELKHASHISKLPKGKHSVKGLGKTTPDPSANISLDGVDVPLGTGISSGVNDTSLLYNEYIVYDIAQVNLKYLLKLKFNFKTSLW

| IC50 [nM] | Structure (SMILES) |
| --- | --- |
| 50 | O=c1[nH]c(=O)n(CCc2ccc(CNCCO)cc2)c2c1CSCC2 [Example 6, 1-[2-(4-{[(2-Hydroxyethyl)amino]methyl}phenyl)ethyl]-1,5,7,8-tetrahydro-2H-thiopyrano-[4,3-d]pyrimidine-2,4(3H)-dione] |
| 300 | Oc1cccc2c(O)nccc12 [DHCH, 1,5-dihydroxyisoquinoline, reference compound] |
| 85 | Cc1cn(CCCn2c3c(c(=O)[nH]c2=O)CSCC3)cn1 [Example 8, 1-[3-(4-Methyl-1H-imidazol-1-yl)propyl]-1,5,7,8-tetrahydro-2H-thiopyrano[4,3-d]pyrimidine-2,4(3H)-dione] |
| 20 | O=c1[nH]c(=O)n(CCc2ccc([N+](=O)[O-])cc2)c2c1CSCC2 [Example 40] |
| 75 | O=c1[nH]c(=O)n(Cc2cccnc2)c2c1CSCC2 [Example 56] |
| 800 | CC(C)N1CCN(C(=O)c2ccc(CCn3c4c(c(=O)[nH]c3=O)CSCC4)cc2)CC1 [Example 62] |
| 80 | Cc1[nH]ncc1CCCn1c2c(c(=O)[nH]c1=O)CSCC2 [Example 53] |
| 60 | O=c1[nH]c(=O)n(CCc2ccc(Br)cc2)c2c1CSCC2 [Example 1, 1-[2-(4-Bromophenyl)ethyl]-1,5,7,8-tetrahydro-2H-thiopyrano[4,3-d]pyrimidine-2,4(3H)-dione] |

System: MHEC5-T cells
Assay: Cell protection assay (in vitro), H2O2-induced cell death
Type: cell-based
Conditions: MHEC5-T endothelial cells, 3 mM H2O2, 5 hours, Alamar blue; 10 μM DHCH defined as 100% protection; read-out: Cell protection (in vitro) EC50
Procedure: In accordance with a method described by Bowes [Bowes et al., Br. J. Pharmacol., 124, 1760-1766 (1998)], the ability of PARS inhibitors to protect cells against cell death induced by incubation with H2O2 is examined in a cell protection assay. Incubation of endothelial cells with H2O2 results in the generation of DNA strand breaks which in turn activate PARS, resulting in a drastic energy decrease in the cells and in cell death. Living cells are quantified by a fluorimetric redox indicator (Alamar blue), which is converted in the electron transport system of the mitochondria.
Specifically, 7500 MHEC5-T cells/well (DSM ACC 336; German collection of microorganisms and cell cultures) are sown in 4 replications on a 96-well plate. After 24 hours, the cells are incubated with 3 mM aqueous H2O2 solution and differing concentrations of the substances in the presence of 6% by volume of Alamar blue solution in the medium at 37° C. for 5 hours. The reference substance used is 10 μM 1,5-dihydroxyisoquinoline (DHCH) solution. After the incubation, the fluorescence is measured at an excitation wavelength of 530-560 nm and an emission wavelength of 590 nm. The percentage for the cell protection is calculated as the difference between the living cells treated only with H2O2 and the cells treated with H2O2 and PARS inhibitors. The internal standard used is 10 μM DHCH, which is defined as 100% protection. The results obtained for the other substances are compared to this value.
The EC50 values indicate the concentration at which 50% of maximum cell protection is reached, maximum protection by 10 μM DHCH being defined as 100%. DHCH has an EC50 value of 2 μM.

| Structure (SMILES) | EC50 [nM] |
| --- | --- |
| O=c1[nH]c(=O)n(CCCn2cnc([N+](=O)[O-])c2)c2c1CSCC2 [Example 65] | 90 |
| O=c1[nH]c(=O)n(CCCn2ccnc2)c2c1CSCC2 [Example 76] | 500 |
| O=Cc1ccc(CCn2c3c(c(=O)[nH]c2=O)CSCC3)cc1 [Example 5] | 150 |
| O=c1[nH]c(=O)n(CCc2cccnc2)c2c1CSCC2 [Example 66] | 650 |
| O=c1[nH]c(=O)n(CCc2ccc(CN3CCCCC3)cc2)c2c1CSCC2 [Example 61] | 100 |

Same assay, conditions: MHEC5-T endothelial cells, 3 mM H2O2; maximum protection by 10 μM DHCH defined as 100%; read-out: EC50 value cell protection

| Structure (SMILES) | EC50 [nM] |
| --- | --- |
| Oc1cccc2c(O)nccc12 [DHCH, 1,5-dihydroxyisoquinoline, reference compound] | 2000 |
